From BindingDB's records for doi:10.1038/sj.bjp.0702201 (Smithkline Beecham Pharmaceuticals, 1998)

Experiments:
[1] = biological target: 5-hydroxytryptamine receptor 7 (Homo sapiens, UniProt P34969)
[2] = biological target: T1, Alpha-1B adrenergic receptor (Homo sapiens, UniProt P35368)
T1 sequence (P35368 whole entry): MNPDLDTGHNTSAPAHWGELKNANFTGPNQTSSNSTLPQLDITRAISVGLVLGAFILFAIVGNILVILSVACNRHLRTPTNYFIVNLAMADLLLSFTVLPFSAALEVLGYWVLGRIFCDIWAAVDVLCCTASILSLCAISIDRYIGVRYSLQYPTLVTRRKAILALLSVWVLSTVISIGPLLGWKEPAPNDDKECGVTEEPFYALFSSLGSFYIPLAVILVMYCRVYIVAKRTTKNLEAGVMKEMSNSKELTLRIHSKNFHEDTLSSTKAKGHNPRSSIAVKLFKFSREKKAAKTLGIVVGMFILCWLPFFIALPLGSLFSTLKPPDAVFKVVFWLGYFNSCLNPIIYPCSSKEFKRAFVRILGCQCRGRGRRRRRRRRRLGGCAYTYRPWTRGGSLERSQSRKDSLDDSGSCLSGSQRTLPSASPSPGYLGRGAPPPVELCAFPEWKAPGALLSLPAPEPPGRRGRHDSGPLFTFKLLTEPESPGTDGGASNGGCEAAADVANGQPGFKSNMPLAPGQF

[3] = biological target: T2, 5-hydroxytryptamine receptor 1F (Homo sapiens, UniProt P30939)
T2 sequence (P30939 whole entry): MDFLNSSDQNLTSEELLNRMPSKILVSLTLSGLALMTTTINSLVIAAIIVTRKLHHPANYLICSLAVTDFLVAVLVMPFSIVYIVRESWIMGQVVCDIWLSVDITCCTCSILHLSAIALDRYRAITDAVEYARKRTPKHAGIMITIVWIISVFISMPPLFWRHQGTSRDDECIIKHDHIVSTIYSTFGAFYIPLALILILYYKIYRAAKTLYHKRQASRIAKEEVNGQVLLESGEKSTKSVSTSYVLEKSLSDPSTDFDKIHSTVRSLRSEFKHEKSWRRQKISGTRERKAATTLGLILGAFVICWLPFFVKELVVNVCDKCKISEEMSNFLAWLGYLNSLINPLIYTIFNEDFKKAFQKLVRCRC

[4] = biological target: 5-hydroxytryptamine receptor 2A (Homo sapiens, UniProt P28223)
[5] = biological target: 5-hydroxytryptamine receptor 4 (Sus scrofa, UniProt Q29006)
D(3) dopamine receptor = D(3) dopamine receptor (Homo sapiens, UniProt P35462)
[6] = biological target: Muscarinic acetylcholine receptor M3 (Homo sapiens, UniProt P20309)
D(2) dopamine receptor = D(2) dopamine receptor (Homo sapiens, UniProt P14416)
[7] = biological target: 5-hydroxytryptamine receptor 1E (Homo sapiens, UniProt P28566)
[8] = biological target: 5-hydroxytryptamine receptor 6 (Homo sapiens, UniProt P50406)
[9] = biological target: T3, 5-hydroxytryptamine receptor 2C (Homo sapiens, UniProt P28335)
T3 sequence (P28335 whole entry): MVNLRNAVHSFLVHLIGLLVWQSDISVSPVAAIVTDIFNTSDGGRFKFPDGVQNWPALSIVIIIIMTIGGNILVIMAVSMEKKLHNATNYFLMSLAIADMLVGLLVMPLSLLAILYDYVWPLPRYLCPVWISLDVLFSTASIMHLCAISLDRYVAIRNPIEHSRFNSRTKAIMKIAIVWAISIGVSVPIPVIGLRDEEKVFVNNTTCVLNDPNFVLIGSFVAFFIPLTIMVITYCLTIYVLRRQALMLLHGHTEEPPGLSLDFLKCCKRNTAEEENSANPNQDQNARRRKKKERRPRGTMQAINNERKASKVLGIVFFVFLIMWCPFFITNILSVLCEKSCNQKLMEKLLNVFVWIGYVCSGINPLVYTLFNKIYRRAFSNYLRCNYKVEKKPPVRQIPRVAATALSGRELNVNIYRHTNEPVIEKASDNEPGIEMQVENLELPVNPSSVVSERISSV

[10] = biological target: 5-hydroxytryptamine receptor 2B (Homo sapiens, UniProt P41595)
[11] = biological target: 5-hydroxytryptamine receptor 1B (Homo sapiens, UniProt P28222)
5-hydroxytryptamine receptor 1B, sequence (P28222 whole entry): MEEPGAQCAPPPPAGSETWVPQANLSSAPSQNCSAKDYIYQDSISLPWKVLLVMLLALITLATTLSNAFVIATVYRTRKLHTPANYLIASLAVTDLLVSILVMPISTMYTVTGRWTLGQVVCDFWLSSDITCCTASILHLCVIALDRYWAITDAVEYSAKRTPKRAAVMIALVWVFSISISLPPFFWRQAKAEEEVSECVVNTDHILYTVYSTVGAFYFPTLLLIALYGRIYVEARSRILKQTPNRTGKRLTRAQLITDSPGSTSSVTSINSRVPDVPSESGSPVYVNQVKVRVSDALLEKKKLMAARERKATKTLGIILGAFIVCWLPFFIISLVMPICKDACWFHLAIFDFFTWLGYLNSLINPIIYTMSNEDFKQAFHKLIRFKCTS

Muscarinic acetylcholine receptor M3, sequence (P20309 whole entry): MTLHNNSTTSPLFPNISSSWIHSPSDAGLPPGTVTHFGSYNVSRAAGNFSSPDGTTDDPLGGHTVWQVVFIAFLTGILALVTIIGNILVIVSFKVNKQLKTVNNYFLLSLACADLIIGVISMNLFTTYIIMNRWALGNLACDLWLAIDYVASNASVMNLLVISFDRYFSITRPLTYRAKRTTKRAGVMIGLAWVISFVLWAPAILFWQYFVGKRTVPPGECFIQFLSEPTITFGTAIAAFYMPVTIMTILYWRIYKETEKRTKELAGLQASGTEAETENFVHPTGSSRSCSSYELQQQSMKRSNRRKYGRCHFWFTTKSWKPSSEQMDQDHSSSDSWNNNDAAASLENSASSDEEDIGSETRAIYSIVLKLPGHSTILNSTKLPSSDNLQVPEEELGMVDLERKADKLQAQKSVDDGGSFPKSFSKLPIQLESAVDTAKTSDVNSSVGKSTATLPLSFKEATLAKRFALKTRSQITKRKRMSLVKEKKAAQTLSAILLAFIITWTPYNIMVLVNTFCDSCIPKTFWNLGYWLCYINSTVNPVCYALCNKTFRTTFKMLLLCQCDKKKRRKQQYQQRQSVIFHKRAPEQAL
5-hydroxytryptamine receptor 4, sequence (Q29006 whole entry): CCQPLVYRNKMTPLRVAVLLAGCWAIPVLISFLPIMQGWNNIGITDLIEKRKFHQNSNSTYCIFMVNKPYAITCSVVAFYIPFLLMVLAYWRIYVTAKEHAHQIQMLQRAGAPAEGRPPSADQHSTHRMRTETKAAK
5-hydroxytryptamine receptor 7, sequence (P34969 whole entry): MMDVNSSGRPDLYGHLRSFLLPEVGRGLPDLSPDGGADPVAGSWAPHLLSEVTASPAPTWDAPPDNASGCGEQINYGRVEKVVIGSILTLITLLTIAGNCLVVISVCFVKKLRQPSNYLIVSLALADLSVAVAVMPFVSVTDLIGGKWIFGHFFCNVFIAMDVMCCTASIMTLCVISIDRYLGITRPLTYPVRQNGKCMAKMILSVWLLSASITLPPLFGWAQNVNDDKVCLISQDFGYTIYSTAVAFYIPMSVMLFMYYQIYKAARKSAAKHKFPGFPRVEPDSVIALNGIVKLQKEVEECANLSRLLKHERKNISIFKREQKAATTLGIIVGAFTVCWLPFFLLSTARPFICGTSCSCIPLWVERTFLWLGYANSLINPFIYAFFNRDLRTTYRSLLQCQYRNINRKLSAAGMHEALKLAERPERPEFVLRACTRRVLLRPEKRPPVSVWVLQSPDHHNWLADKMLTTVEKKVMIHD
5-hydroxytryptamine receptor 2A, sequence (P28223 whole entry): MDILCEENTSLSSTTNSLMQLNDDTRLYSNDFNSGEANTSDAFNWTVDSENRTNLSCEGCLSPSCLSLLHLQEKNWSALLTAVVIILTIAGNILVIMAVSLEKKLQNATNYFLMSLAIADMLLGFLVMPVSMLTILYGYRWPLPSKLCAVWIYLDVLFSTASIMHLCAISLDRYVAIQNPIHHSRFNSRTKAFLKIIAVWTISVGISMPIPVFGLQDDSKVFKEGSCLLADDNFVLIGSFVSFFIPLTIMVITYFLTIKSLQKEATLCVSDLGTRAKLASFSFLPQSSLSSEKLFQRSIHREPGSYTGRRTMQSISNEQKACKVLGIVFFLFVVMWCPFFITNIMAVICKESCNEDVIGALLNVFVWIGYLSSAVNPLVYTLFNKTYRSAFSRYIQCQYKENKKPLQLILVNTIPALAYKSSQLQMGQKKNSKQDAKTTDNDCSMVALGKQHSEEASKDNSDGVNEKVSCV
5-hydroxytryptamine receptor 6, sequence (P50406 whole entry): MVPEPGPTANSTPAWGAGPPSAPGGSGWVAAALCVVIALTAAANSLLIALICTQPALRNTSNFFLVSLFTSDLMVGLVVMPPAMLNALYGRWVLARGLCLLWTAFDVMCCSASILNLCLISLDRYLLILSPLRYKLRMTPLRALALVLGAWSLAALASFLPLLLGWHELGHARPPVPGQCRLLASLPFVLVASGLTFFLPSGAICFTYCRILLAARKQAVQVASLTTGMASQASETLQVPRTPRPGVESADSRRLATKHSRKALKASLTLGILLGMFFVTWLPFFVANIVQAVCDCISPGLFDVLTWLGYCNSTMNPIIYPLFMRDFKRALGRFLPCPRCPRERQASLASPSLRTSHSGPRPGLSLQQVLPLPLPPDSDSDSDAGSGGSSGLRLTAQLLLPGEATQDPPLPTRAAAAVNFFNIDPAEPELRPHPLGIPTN
5-hydroxytryptamine receptor 2B, sequence (P41595 whole entry): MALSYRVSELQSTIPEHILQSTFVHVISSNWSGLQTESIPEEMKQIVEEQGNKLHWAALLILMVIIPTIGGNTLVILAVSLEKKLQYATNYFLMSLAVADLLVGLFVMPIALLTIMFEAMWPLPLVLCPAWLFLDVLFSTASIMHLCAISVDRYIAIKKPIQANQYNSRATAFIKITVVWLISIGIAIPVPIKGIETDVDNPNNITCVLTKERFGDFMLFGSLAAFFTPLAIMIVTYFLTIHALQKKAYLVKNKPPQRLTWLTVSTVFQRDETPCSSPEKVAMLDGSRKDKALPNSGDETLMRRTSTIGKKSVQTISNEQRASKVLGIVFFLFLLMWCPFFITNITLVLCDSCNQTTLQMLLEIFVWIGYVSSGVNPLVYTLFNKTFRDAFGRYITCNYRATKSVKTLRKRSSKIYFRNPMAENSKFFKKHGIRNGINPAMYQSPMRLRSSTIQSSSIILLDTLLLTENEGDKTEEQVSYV
D(3) dopamine receptor, sequence (P35462 as listed by the source): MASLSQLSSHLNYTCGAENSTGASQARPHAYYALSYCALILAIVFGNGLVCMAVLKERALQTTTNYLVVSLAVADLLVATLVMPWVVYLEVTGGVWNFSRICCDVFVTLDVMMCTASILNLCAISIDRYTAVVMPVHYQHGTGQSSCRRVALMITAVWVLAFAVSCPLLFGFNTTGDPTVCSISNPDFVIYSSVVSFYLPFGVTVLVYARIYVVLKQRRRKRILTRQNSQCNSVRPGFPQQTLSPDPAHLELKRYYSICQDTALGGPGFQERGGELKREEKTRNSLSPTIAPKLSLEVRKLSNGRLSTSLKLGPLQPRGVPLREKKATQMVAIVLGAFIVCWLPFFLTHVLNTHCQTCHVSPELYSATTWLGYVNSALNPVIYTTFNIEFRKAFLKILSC
5-hydroxytryptamine receptor 1E, sequence (P28566 whole entry): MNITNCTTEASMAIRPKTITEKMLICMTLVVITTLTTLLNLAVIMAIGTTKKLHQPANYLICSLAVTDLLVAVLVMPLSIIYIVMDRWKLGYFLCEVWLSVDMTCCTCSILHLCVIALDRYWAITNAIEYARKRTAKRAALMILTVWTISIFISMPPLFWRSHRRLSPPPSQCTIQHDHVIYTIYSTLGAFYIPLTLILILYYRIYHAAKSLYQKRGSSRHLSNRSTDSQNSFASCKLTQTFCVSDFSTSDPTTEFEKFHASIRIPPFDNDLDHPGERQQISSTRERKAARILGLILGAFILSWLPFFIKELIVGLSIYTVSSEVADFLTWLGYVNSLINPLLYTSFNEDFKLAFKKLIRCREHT
D(2) dopamine receptor, sequence (P14416 whole entry): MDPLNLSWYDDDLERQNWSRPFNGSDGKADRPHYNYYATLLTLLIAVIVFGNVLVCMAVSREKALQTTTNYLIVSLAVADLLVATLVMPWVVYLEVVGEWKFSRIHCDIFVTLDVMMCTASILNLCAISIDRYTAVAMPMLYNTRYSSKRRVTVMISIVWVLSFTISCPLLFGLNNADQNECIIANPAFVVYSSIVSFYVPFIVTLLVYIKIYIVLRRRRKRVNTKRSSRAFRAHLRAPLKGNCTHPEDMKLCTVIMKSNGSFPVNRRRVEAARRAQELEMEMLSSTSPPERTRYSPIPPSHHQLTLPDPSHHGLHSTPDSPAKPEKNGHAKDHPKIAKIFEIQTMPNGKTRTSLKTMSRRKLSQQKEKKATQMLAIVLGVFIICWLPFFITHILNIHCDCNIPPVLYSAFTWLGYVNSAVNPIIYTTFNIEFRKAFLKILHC

Question: With `CCCCCCOc1nsnc1C1=CCCN(C)C1` as the compound, how does the Ki [1] read?
Answer: 126 nM

Question: And the Ki [2]?
Answer: 1580 nM

Question: And the Ki [3]?
Answer: 316 nM

Question: And the Ki [4]?
Answer: 126 nM

Question: And the Ki [5]?
Answer: 251 nM

Question: What about the Ki (D(3) dopamine receptor) of the same compound?
Answer: 398 nM

Question: What about the Ki [6] of the same compound?
Answer: 39.8 nM

Question: What about the Ki (D(2) dopamine receptor) of the same compound?
Answer: 1000 nM

Question: What about the Ki [7] of the same compound?
Answer: 2510 nM

Question: What about the Ki [8] of the same compound?
Answer: 1260 nM

Question: And the Ki [9]?
Answer: 39.8 nM

Question: What about the Ki [10] of the same compound?
Answer: 19.9 nM

Question: What about the Ki [11] of the same compound?
Answer: 50.1 nM
